# From patent publication US8343951B2, “Volatile sulfide production inhibitor and method for inhibiting the production of volatile sulfide using the inhibitor” (Kabushiki Kaisha Hayashibara Seibutsu Kagaku Kenkyujo, priority 2006, dated 2013)
# Columns and labels:
# [1] = Hydrogen sulfide production from heated mackerel meat homogenate (headspace detecting tube); details: for Produced Volatile sulfide: hydrogen sulfide in headspace; for Inhibiting rate of volatile sulfide production: hydrogen sulfide, relative to control
# Experimental: AA-2G (reagent grade, commercialized by Hayashibara Biochemical Laboratories, Inc.) was dissolved in distilled water to give a solution of a concentration of 10%. A certain amount of the solution and 5 ml of 500 mM phosphate buffer (pH 7.0) were put into measuring flask and filled up to 50 ml to give the test solutions containing AA-2G at the twofold concentration described in Table 1. Also the test solutions containing ascorbic acid were prepared in the same way except for using ascorbic acid (guaranteed regent) in place of AA-2G. Five ml of 500 mM phosphate buffer (pH 7.0) was filled up to 50 ml with distilled water to give control solution. Edible part of commercial mackerel fillet without bone and skin was chopped with trio blender and homogeneously stirred to make minced mackerel. Forty-five grams of the minced mackerel was put into a beaker and added with 45 g of the test solution or control solution to give the samples at the concentration of AA-2G or ascorbic acid described in Table 1. The samples were treated with homogenizer (produced by IKA Works Inc.) at ice-chilled temperature to give the homogenates as the test samples. PH of the homogenates is from 6.21 to 6.38. Ten grams of the above samples were put into 20 ml-vials and sealed with butyl rubber cap and aluminum seal. They were heated in boiled water bath for 15 minutes and cooled in running cool water. After cooled, they were heated on heating block (80° C.) for 10 minutes and the solidified samples were broken with vortex mixer. The amounts of hydrogen sulfide in the headspace gas were measured by hydrogen sulfide detecting tube ([…] No. 4LT, produced by GL Sciences Inc.). Also the inhibiting rate (%) of hydrogen sulfide production were shown in Table 1, which were obtained by subtracting the percentage amounts of hydrogen sulfide produced from 1 g of mackerel meats added with test solutions relative to the amount of hydrogen sulfide produced from 1 g of mackerel meat added with control solution from 100 to obtain.
# [2] = Dimethyl-sulfide and dimethyl-disulfide production from heated milk (headspace gas chromatography); details: for Produced Dimethyl-disulfide / Produced Dimethyl-sulfide: milk heated 130° C. one minute; for production of volatile sulfides (dimethyl-sulfide and dimethyl-disulfide) from the test solutions / Produced Volatile sulfide: milk; for Inhibiting rate of volatile sulfide production: relative to control milk; for Produced Volatile sulfide: sum of dimethyl-sulfide and dimethyl-disulfide
# Experimental: AA-2G (reagent grade, commercialized by Hayashibara Biochemical Laboratories, Inc.) was added in commercial milk to give the concentrations described in Table 2 to make the test solutions. Test solutions containing ascorbic acid were prepared in the same way except for using ascorbic acid (guaranteed regent) in place of AA-2G. The commercial milk was used plain as control. Sensory test of the solutions was performed by 11 panelists to evaluate the taste of each test solution added with AA-2G or ascorbic acid as being different (D) from control or as being the same (S) as control. As a result, eight or more of the 11 panelists gave a same evaluation to each test solution.
# One ml of the above samples were put into 20 ml-vials and sealed with butyl rubber cap and aluminum seal. After heated at 130° C. for one minute, the amounts of dimethyl-sulfide and dimethyl-disulfide in the headspace were measured by gas chromatography in conventional way. The sums of them were shown as the amounts of volatile sulfide in Table 2. Also the inhibiting rates (%) of volatile sulfide production were shown in Table 2, which were obtained by subtracting the percentage amounts of volatile sulfide produced from ml of the test solutions relative to the amount of volatile sulfide produced from 1 ml of control (milk) from 100 to obtain.
compound,measurement,setting,value
"O=C1O[C@H]([C@@H](O)CO)C(O)=C1O [Ascorbic acid, L-ascorbic acid, reference compound]",hydrogen sulfide production from homogenate of mackerel meat,[1]; concentration of 0.005% or less,equal to control
same,hydrogen sulfide production from homogenate of mackerel meat,[1]; concentration of 0.01% or more,enhanced
same,Produced Volatile sulfide,[1]; additive 0.0001% in sample,44.1 μg/g-mackerel
same,Produced Volatile sulfide,[1]; additive 0.0005% in sample,43.4 μg/g-mackerel
same,Produced Volatile sulfide,[1]; additive 0.001% in sample,43.6 μg/g-mackerel
same,Produced Volatile sulfide,[1]; additive 0.005% in sample,42.9 μg/g-mackerel
same,Produced Volatile sulfide,[1]; additive 0.01% in sample,71.7 μg/g-mackerel
same,Produced Volatile sulfide,[1]; additive 0.025% in sample,133.9 μg/g-mackerel
same,Produced Volatile sulfide,[1]; additive 0.05% in sample,139.3 μg/g-mackerel
same,Produced Volatile sulfide,[1]; additive 0.1% in sample,207.1 μg/g-mackerel
same,Produced Volatile sulfide,[1]; additive 0.5% in sample,257.4 μg/g-mackerel
same,Produced Volatile sulfide,[1]; additive 1.0% in sample,287.8 μg/g-mackerel
same,Inhibiting rate of volatile sulfide production,[1]; additive 0.0001% in sample,−2.1%
same,Inhibiting rate of volatile sulfide production,[1]; additive 0.0005% in sample,−0.5%
same,Inhibiting rate of volatile sulfide production,[1]; additive 0.001% in sample,−0.9%
same,Inhibiting rate of volatile sulfide production,[1]; additive 0.005% in sample,0.7%
same,Inhibiting rate of volatile sulfide production,[1]; additive 0.01% in sample,−66.0%
same,Inhibiting rate of volatile sulfide production,[1]; additive 0.025% in sample,−210.0%
same,Inhibiting rate of volatile sulfide production,[1]; additive 0.05% in sample,−222.5%
same,Inhibiting rate of volatile sulfide production,[1]; additive 0.1% in sample,−379.4%
same,Inhibiting rate of volatile sulfide production,[1]; additive 0.5% in sample,−495.8%
same,Produced Dimethyl-disulfide,[2]; additive 0.0001% in sample,0.56 μg/ml-milk
same,Produced Dimethyl-sulfide,[2]; additive 0.0001% in sample,1.32 μg/ml-milk
same,Produced Dimethyl-disulfide,[2]; additive 0.0005% in sample,0.54 μg/ml-milk
same,Produced Dimethyl-sulfide,[2]; additive 0.0005% in sample,1.41 μg/ml-milk
same,Produced Dimethyl-disulfide,[2]; additive 0.001% in sample,0.51 μg/ml-milk
same,Produced Dimethyl-sulfide,[2]; additive 0.001% in sample,1.28 μg/ml-milk
same,Produced Dimethyl-disulfide,[2]; additive 0.005% in sample,0.24 μg/ml-milk
same,Produced Dimethyl-sulfide,[2]; additive 0.005% in sample,0.71 μg/ml-milk
same,Produced Dimethyl-disulfide,[2]; additive 0.01% in sample,0.21 μg/ml-milk
same,Produced Dimethyl-sulfide,[2]; additive 0.01% in sample,0.45 μg/ml-milk
same,Produced Dimethyl-disulfide,[2]; additive 0.05% in sample,0.18 μg/ml-milk
same,Produced Dimethyl-sulfide,[2]; additive 0.05% in sample,0.54 μg/ml-milk
same,Produced Dimethyl-disulfide,[2]; additive 0.1% in sample,0.27 μg/ml-milk
same,Produced Dimethyl-sulfide,[2]; additive 0.1% in sample,0.61 μg/ml-milk
same,Produced Dimethyl-disulfide,[2]; additive 0.5% in sample,0.31 μg/ml-milk
same,Produced Dimethyl-sulfide,[2]; additive 0.5% in sample,0.74 μg/ml-milk
same,Produced Dimethyl-disulfide,[2]; additive 2.5% in sample,0.38 μg/ml-milk
same,Produced Dimethyl-sulfide,[2]; additive 2.5% in sample,1.07 μg/ml-milk
same,production of volatile sulfides (dimethyl-sulfide and dimethyl-disulfide) from the test solutions,[2]; concentration of 0.001% or less,equal to control
same,production of volatile sulfides (dimethyl-sulfide and dimethyl-disulfide) from the test solutions,[2]; concentration of 0.005%,inhibited
same,Inhibiting rate of volatile sulfide production,[2]; additive 0.0001% in sample,0.5%
same,Inhibiting rate of volatile sulfide production,[2]; additive 0.0005% in sample,−3.2%
same,Inhibiting rate of volatile sulfide production,[2]; additive 0.001% in sample,5.3%
same,Inhibiting rate of volatile sulfide production,[2]; additive 0.005% in sample,49.7%
same,Inhibiting rate of volatile sulfide production,[2]; additive 0.01% in sample,65.1%
same,Inhibiting rate of volatile sulfide production,[2]; additive 0.05% in sample,61.9%
same,Inhibiting rate of volatile sulfide production,[2]; additive 0.1% in sample,53.4%
same,Inhibiting rate of volatile sulfide production,[2]; additive 0.5% in sample,44.4%
same,Inhibiting rate of volatile sulfide production,[2]; additive 2.5% in sample,23.3%
same,Produced Volatile sulfide,[2]; additive 0.0001% in sample,1.88 µg/mL
same,Produced Volatile sulfide,[2]; additive 0.0005% in sample,1.95 µg/mL
same,Produced Volatile sulfide,[2]; additive 0.001% in sample,1.79 µg/mL
same,Produced Volatile sulfide,[2]; additive 0.005% in sample,0.95 µg/mL
same,Produced Volatile sulfide,[2]; additive 0.01% in sample,0.66 µg/mL
same,Produced Volatile sulfide,[2]; additive 0.05% in sample,0.72 µg/mL
same,Produced Volatile sulfide,[2]; additive 0.1% in sample,0.88 µg/mL
same,Produced Volatile sulfide,[2]; additive 0.5% in sample,1.05 µg/mL
same,Produced Volatile sulfide,[2]; additive 2.5% in sample,1.45 µg/mL
